Results as given in paper PMC5407577, “Functional and genetic evidence that nucleoside transport is highly conserved in Leishmania species: Implications for pyrimidine-based chemotherapy” (International Journal for Parasitology: Drugs and Drug …, 2017).
Where two headings read alike, the source gives them in different places.

Columns and labels:
[1] = target: LmexNT1; format: cell-based, Leishmania mexicana; details: inhibition of 0.25 μM [3H]-uridine uptake in the presence of 1 mM uracil
Method: (§1) Using the standard uptake technique as described for T. brucei and Leishmania species ([Wallace et al., 2002], [Al-Salabi and De Koning, 2005], [Gudin et al., 2006]), the dose- or time-dependent uptake of radiolabeled permeants was investigated.
(§2) Briefly, cells in the mid-to-late logarithmic stage of growth were harvested by centrifugation for 10 min at 1500×g. The cells were washed twice with transport assay buffer (AB: 33 mM HEPES, 98 mM NaCl, 4.6 mM KCl, 0.55 mM CaCl2, 0.07 mM MgSO4, 5.8 mM NaH2PO4, 0.3 mM MgCl2, 23 mM NaHCO3, 14 mM glucose, pH 7.3), resuspended at a density of 10^8 cells ml^−1 in AB, and left for 20–30 min at room temperature to recover from centrifugation stress. One hundred microliters of cell suspension was incubated at ambient temperature for a predetermined time with 100 μl radiolabeled test compound, in the presence or absence of unlabeled substrate or other competitive inhibitors. The incubation was terminated by the addition of ice-cold stop solution (AB containing saturating levels, usually 10 mM, of unlabeled permeant) and centrifugation through oil for 1 min at 13,000 × g. […] Radioactivity was determined by liquid scintillation counting in a Beckman LS6000 TA scintillation counter. Saturation data, inhibition data, and time courses were plotted to equations for linear or non-linear regression (hyperbolic or sigmoid curves), as appropriate. All experiments were performed in triplicate and on at least three independent occasions.

[2] = system: L. major promastigotes WT; experiment: Alamar blue drug sensitivity assay, L. major WT; format: cell-based, Leishmania major; details: Leishmania major, 72 h, WT promastigotes, 72 h + 48 h with dye; n ≥ 4; read-out: EC50
Method: (§3) Sensitivity assays of Leishmania strains to various drugs using the viability dye resazurin (Alamar Blue) (Sigma-Aldrich) were performed using a protocol adapted from [Räz et al. (1997)], as described ([Al-Salabi et al., 2003], [Gould et al., 2008]). Pentamidine and diminazene were used as non-nucleoside controls and were obtained from Sigma-Aldrich, as were many purines, pyrimidines, and analogs, with the exceptions of 2-thiouridine and 4-thiouridine (TriLink BioTechnologies, San Diego, CA); 5′-deoxyuridine, and 2′-3′-dideoxyuridine (Carbosynth, Compton, UK); 5-fluoro-2′-deoxyuridine (Fluka); and 2-thiouracil (ICN Biomedicals, Cambridge, UK). A preliminary promastigote culture was diluted to a density of 2 × 10^6 cells/ml, of which 100 μl was added to wells of 96-well plates pre-loaded with 100 μl of doubling dilutions of test compounds, resulting in a final density of 1 × 10^6 cells/ml; the dilutions were over 2 rows of the plate (23 concentrations), with the last well containing only medium and serving as the no-drug control. The plates were incubated at 25 °C for 72 h before adding the Alamar Blue dye (20 μl of 12.5 mg resazurin sodium salt (Sigma) in 100 ml phosphate buffered saline (PBS; pH 7.4)). Since Leishmania parasites metabolize the Alamar Blue dye slower than trypanosomes ([Gould et al., 2008]), the cells were incubated with the dye for a further period of 48 h before measuring the fluorescence, using a FLUOstar Optima fluorimeter (BMG Labtech) at wavelengths of 544 nm for excitation and 620 nm for emission. […] Each experiment was performed independently at least 4 times; statistical significance was determined using Student's unpaired t-test.

[3] = system: L. major promastigotes; experiment: metabolomic analysis of treated L. major promastigotes; format: cell-based, Leishmania major; details: 100 μM, 8 h
Method: (§4) Metabolomics analysis of the Leishmania promastigotes was undertaken in triplicate, exactly as described ([Ali et al., 2013a]). Briefly, cells were grown to log phase stage, resuspended at 2 × 10^6 cells/ml in 50 ml HOMEM/FBS and incubated 8 h with 100 μM of test compound (standard conditions) before transfer to a 50-ml centrifuge tube for instantaneous cooling (dry ice/ethanol bath, 4 °C) and centrifugation (2500 rpm, 10 min, 4 °C). The pellet was lysed with 200 μl of chloroform/methanol/water (1:3:1 v/v/v) containing mass spectrometry standards, and vigorous mixing (1 h, 4 °C); cell debris was removed by centrifugation and the metabolite extracts were stored in HPLC vials at −80 °C. Control samples were prepared in parallel and included untreated cells, unused growth medium, test compound solution and extraction solvent blanks. The analysis used a hydrophilic interaction liquid chromatography (HILIC-LC) fitted with a zwitterionic ZIC-pHILIC column (Merck Sequant), coupled to high resolution mass spectrometry (MS) using a Thermo Q-Exactive, and metabolomic data outputs were analyzed using the IDEOM application (http://mzmatch.sourceforge.net/ideom.php) with default parameters ([Creek et al., 2012]) exactly as described ([Ali et al., 2013a]). The lower limit of detection was set to 500 intensity units for all reported metabolites, in order to prevent spurious identification of low level signals.
(§5) The mechanism of action of the fluorinated pyrimidines was investigated using a metabolomics approach, where promastigotes of L. mexicana and L. major were incubated for 8 h with 100 μM of either 5-FU, 5F-2′dUrd or 5F-Urd prior to metabolite extraction and mass spectrometric analysis as described ([Ali et al., 2013a], [Alkhaldi et al., 2015]). These conditions were chosen to allow for significant metabolite accumulation while not affecting cell viability or growth rate, which could broadly affect metabolite levels.

[4] = target: LmajNT1; experiment: [3H]-thymidine uptake by L. major promastigotes; format: cell-based, Leishmania major
Method: as §1, §2
Subsequent experiments were performed with a 5 min incubation time.

[5] = system: L. mexicana promastigotes WT; experiment: Alamar blue drug sensitivity assay, L. mexicana WT; format: cell-based, Leishmania mexicana; details: Leishmania mexicana, 72 h, WT promastigotes, 72 h + 48 h with dye; n ≥ 4; read-out: EC50
Method: as §3

[6] = system: Lmex5FURes; experiment: microbe, parasite or virus in culture; format: cell-based, Leishmania mexicana
Method: as §3

[7] = system: Lmex5F2′dURes; experiment: microbe, parasite or virus in culture; format: cell-based, Leishmania mexicana
Method: as §3

[8] = system: L. mexicana promastigotes; experiment: metabolomic analysis of treated L. mexicana promastigotes; format: cell-based, Leishmania mexicana; details: 100 μM, 8 h
Method: as §4, §5

[9] = system: Lmaj5FURes; experiment: microbe, parasite or virus in culture; format: cell-based, Leishmania major
Method: as §3

[10] = system: Lmaj5F2′dURes; experiment: microbe, parasite or virus in culture; format: cell-based, Leishmania major
Method: as §3

[11] = target: LmexNT1; experiment: [3H]-adenosine uptake by L. mexicana promastigotes; format: cell-based, Leishmania mexicana; details: inhibition of 0.05 μM [3H]-adenosine uptake; read-out: Ki
Source text: Using the standard uptake technique as described for T. brucei and Leishmania species ([Wallace et al., 2002], [Al-Salabi and De Koning, 2005], [Gudin et al., 2006]), the dose- or time-dependent uptake of radiolabeled permeants was investigated. The following radiolabels and specific activities were used: [^3H]-thymidine (Perkin Elmer; 56.6 Ci/mmol); [^3H]-adenosine (American Radiolabeled Chemicals UK; 40 Ci/mmol); [^3H]-uridine (American Radiolabeled Chemicals UK; 30 Ci/mmol); [^3H]-uracil (Perkin Elmer; 24.8 Ci/mmol); [^3H]-inosine (American Radiolabeled Chemicals UK; 20 Ci/mmol); [^3H]-5-fluorouracil (Moravek; 20 Ci/mmol).
as §2
We next investigated the transport of [^3H]-adenosine in L. mexicana promastigotes, which according to the efficient inhibition of [^3H]-thymidine by adenosine, should be taken up with high affinity.

[12] = target: LmajNT1; experiment: [3H]-uridine uptake by L. major promastigotes, low-affinity component; format: cell-based, Leishmania major; details: inhibition of 0.25 μM [3H]-uridine uptake
Method: as §1, §2

[13] = system: LmexNT1; format: cell-based, Leishmania mexicana; details: for rate of uptake: 1 μM [3H]-thymidine
Method: as §1, §2
L. donovani is known to express one pyrimidine nucleoside transporter, LdNT1, which also transports adenosine ([Vasudevan et al., 1998], [De Koning et al., 2005]). In order to investigate whether this model held true for L. mexicana, the uptake of [^3H]-thymidine was studied. […] Care was taken throughout this study that whenever inhibition constants (Ki) or Michaelis-Menten constants (Km) were determined the conditions used had been verified to be well within the linear range of uptake.

[14] = target: LmajUUT1; experiment: [3H]-uridine uptake by L. major promastigotes, high-affinity uracil-sensitive component; format: cell-based, Leishmania major; details: inhibition of 0.25 μM [3H]-uridine uptake
Method: as §1, §2

[15] = n = 3, SEM, untreated: not detected (<500)

## O=c1[nH]c(=O)n([C@H]2C[C@H](O)[C@@H](CO)O2)cc1F [5F-2′dUrd, 5-Fluoro-2′-deoxyuridine]
[1]
  Ki: 6.99 ± 0.11 µM
[2]
  EC50: ~1.5 µM
[3]; [15]
  dCMP peak intensity: not detected
[3]; untreated: 712 ± 105
  dUrd peak intensity: 7615 ± 1236^∗ arbitrary units
[3]; untreated: 995 ± 109
  dCTP peak intensity: 7036 ± 1684 arbitrary units
[3]; untreated: 2992 ± 173
  dAdo peak intensity: 14181 ± 3275 arbitrary units
[3]; untreated: 6192 ± 910
  dAMP peak intensity: 14740 ± 2815 arbitrary units
[3]; untreated: not detected
  dADP peak intensity: 6493 ± 3261 arbitrary units
  dCDP peak intensity: 6617 ± 188^∗∗∗ arbitrary units
[4]
  Ki: 29.7 ± 2.1 µM
[5]
  EC50: ~1.5 µM
[6]; Leishmania mexicana
  EC50: 1.5 ± 0.2 µM
[6]; Lmex5FURes vs L. mexicana WT
  RF (Resistance Factor = IC50 (resistant clone)/IC50 (WT)): 1.07
[7]; Leishmania mexicana
  EC50: > 5000 µM
[7]; Lmex5F2′dURes vs L. mexicana WT
  RF (Resistance Factor = IC50 (resistant clone)/IC50 (WT)): >3500
[8]; detection limit 500 units (Fig. 13F)
  dTTP intensity: Not detectable
[8]; [15]
  dCMP peak intensity: 6006 ± 3089 arbitrary units
[8]; untreated: 304 ± 155
  dUrd peak intensity: 5414 ± 717^∗ arbitrary units
[8]; untreated: 1458
  dADP peak intensity: 8367 ± 1844^∗ arbitrary units
[8]; untreated: 2585 ± 811
  dAdo peak intensity: 5412 ± 1699 arbitrary units
[8]; untreated: not detected
  dCDP peak intensity: 4451 ± 1188^∗ arbitrary units
  dCTP peak intensity: 1569 ± 244 arbitrary units
[9]; Leishmania major
  EC50: 6.1 ± 0.5 µM
[9]; Lmaj5FURes vs L. major WT
  RF (Resistance Factor = IC50 (resistant clone)/IC50 (WT)): 3.6
[10]; Leishmania major
  EC50: 381 ± 83 µM
[10]; Lmaj5F2′dURes vs L. major WT
  RF (Resistance Factor = IC50 (resistant clone)/IC50 (WT)): 224

## Cc1cn([C@H]2C[C@H](O)[C@@H](CO)O2)c(=O)[nH]c1=O [thymidine]
[1]
  Ki: 9.98 ± 2.67 µM
[11]
  Ki: 16.5 ± 0.4 µM
[12]
  Ki: 60.9 ± 8.4 µM
[13]; linear over 30 s (Fig. 1A)
  rate of uptake: 0.082 ± 0.005 pmol(10^7 cells)^−1s^−1
[13]; over 2 min (Fig. 1B)
  rate of uptake: 0.051 ± 0.002 pmol(10^7 cells)^−1s^−1
[13]; [3H]-thymidine
  Vmax: 1.53 ± 0.28 pmol(10^7 cells)^−1s^−1
[13]; [3H]-thymidine, n = 3
  Km: 11.2 ± 2.4 µM
[4]; [3H]-thymidine, high affinity component
  Vmax (1): 0.023 ± 0.003 pmol(10^7 cells)^−1s^−1
[4]; [3H]-thymidine, high affinity component, Lineweaver-Burke plot, n = 5, read-out: Km (1)
  Km: 4.2 ± 1.09 µM
[4]; [3H]-thymidine, lower affinity component
  Vmax (2): 0.14 ± 0.03 pmol(10^7 cells)^−1s^−1
[4]; n = 5, read-out: average Km from Michaelis-Menten saturation plots (single-component fit)
  Km: 30.7 ± 2.1 µM
[4]; single experiment shown in Fig. 5C, read-out: apparent Km, higher affinity component
  Km: 1.26 µM
[4]; single experiment shown in Fig. 5C, read-out: apparent Km, lower affinity component
  Km: 17.1 µM
[14]
  Ki: 60.9 ± 8.4 µM
